Reference: PubChem BioAssay AID2376 (NMMLSC, 2010)

Target: Cell division control protein 42 homolog (Homo sapiens) (UniProt P60953)
Assay: concentration effect on fluorescent GTP binding to Cdc42 – biochemical, nucleotide-depleted protein, Mg buffer, constant GTP, mechanism study for Ras-family GTPase inhibitor project, dose response (AID 2376)
Details: GST-Cdc42 beads, BODIPY-GTP binding, flow cytometry

Sequence of Cell division control protein 42 homolog (Homo sapiens) (P60953 whole entry, looked up): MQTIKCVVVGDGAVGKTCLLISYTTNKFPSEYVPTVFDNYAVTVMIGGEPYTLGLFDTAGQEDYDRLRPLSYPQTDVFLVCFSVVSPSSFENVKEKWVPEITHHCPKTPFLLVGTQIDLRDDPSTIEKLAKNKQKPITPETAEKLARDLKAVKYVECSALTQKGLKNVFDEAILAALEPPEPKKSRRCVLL

## COc1ccc(C2CC(c3ccccc3)=NN2c2ccc(S(N)(=O)=O)cc2)cc1 (stereo unspecified)
  EC50: 263 nM
